Laboratory results published in patent publication US8829185B2 (Bayer HealthCare LLC, priority 2005, dated 2014).

Target: T1, FGFR1-GST (Homo sapiens, UniProt P11362)
T1 construct: GST; made in house
Assay: FGFR-1 TR-FRET biochemical assay
Method: FGFR-1 TR-FRET Biochemical Assay
The FGFR-1 Assay was performed on half well 96-well opaque plates (Costar 3915) in a LANCE format. LANCE is a homogenous time resolved fluormetry based application available through Perkin Elmer. For this assay, 50 uL reactions were set up using: 0.6 uM ATP (Sigma), 25 nM poly GT-biotin (CIS BIO International), 2 nM Eu-labelled phospho-Tyr Ab (PY20 PerkinElmer), 10 nM Streptavidin-APC (Perkin Elmer), 5 nM FGFR1-GST (generated by DRT, Bayer Healthcare), 1% DMSO, 50 mM HEPES pH 7.5, 10 mM MgCl2, 0.1 mM EDTA, 0.015% Brij, 0.1 mg/ml BSA, 0.1% B-mercaptoethanol. All reactions were initiated with the addition of enzyme and were left to incubate for one hour at room temperature. Time-resolved fluorescence was then read on a Perkin Elmer VictorV Multilabel counter. The reading protocol uses an excitation wavelength at 340 nm and emission reads at both 615 and 665 nm. Signal was calculated as a ratio: (Fluorescence at 665 nm/Fluorescence at […])*10000 for each well. The background control used for this assay is the signal produced with all assay components excluding ATP. For IC50 generation, compounds were added prior to the enzyme initiation. A 50-fold stock plate was made with compounds serially diluted 1:5 in a 50% DMSO/50% dH2O solution. A 1 μL addition of the stock to the assay wells gave final compound concentrations ranging from 10 μM −0.128 nM in 1% DMSO. The data were expressed as percent inhibition: % inhibition=100−((Signal with inhibitor-background)/(Signal without inhibitor−background))*100.

T1 sequence (P11362 22-822): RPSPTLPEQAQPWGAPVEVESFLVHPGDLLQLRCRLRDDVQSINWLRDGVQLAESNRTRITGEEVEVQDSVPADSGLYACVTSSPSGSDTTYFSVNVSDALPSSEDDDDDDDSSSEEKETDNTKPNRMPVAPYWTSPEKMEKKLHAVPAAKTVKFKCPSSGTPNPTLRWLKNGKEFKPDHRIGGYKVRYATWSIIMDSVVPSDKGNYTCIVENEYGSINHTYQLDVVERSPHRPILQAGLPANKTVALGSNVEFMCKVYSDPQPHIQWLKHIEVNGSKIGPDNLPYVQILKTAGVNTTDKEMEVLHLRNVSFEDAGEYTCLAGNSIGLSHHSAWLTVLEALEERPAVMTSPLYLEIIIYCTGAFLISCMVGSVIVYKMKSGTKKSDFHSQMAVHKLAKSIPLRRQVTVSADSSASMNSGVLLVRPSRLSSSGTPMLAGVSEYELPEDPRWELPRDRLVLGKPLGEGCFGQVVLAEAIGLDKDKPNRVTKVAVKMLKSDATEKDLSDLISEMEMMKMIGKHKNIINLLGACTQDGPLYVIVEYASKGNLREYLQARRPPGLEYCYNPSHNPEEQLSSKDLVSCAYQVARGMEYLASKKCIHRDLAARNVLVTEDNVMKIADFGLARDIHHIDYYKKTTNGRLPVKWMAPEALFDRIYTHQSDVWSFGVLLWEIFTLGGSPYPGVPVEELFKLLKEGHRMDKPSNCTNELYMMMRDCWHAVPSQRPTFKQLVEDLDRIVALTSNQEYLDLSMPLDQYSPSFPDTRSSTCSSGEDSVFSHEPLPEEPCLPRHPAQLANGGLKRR

Structure (SMILES)	IC50 (bounds given in nM) [nM]	IC50 (upper bound in μM) [nM]
CON(C)C(=O)c1c(-c2ccc(NC(=O)Nc3cc(C(F)(F)F)ccn3)cc2)c2c(N)ncnn2c1CN1CCN(C)CC1 [Example 94, 4-amino-N-methoxy-N-methyl-7-[(4-methylpiperazin-1-yl)methyl]-5-{4-[({[4-(trifluoromethyl)pyridin-2-yl]amino}-carbonyl)amino]-phenyl}pyrrolo[2,1-f][1,2,4]triazine-6-carboxamide]	> 100	< 1000
CS(=O)(=O)N1CCN(Cc2c(CC#N)c(-c3ccc(NC(=O)Nc4cc(C(F)(F)F)ccn4)cc3)c3c(N)ncnn23)CC1 [Example 67, N-[4-(4-amino-6-(cyanomethyl)-7-{[4-(methylsulfonyl)piperazin-1-yl]methyl}pyrrolo[2,1-f][1,2,4]triazin-5-yl)phenyl]-N′-[4-(trifluoromethyl)pyridin-2-yl]urea]	10 to 100	–
N#CCc1c(-c2ccc(NC(=O)Nc3cc(C(F)(F)F)ccc3F)cc2)c2c(N)ncnn2c1CN1CCNCC1 [Example 75, N-(4-{4-amino-6-(cyanomethyl)-7-(piperazin-1-ylmethyl)pyrrolo[2,1-f][1,2,4]triazin-5-yl}phenyl)-N′-[2-fluoro-5-(trifluoromethyl)phenyl]urea]	< 10	–
N#CCc1c(-c2ccc(NC(=O)Nc3cc(C(F)(F)F)ccc3F)c(F)c2)c2c(N)ncnn2c1CN1CCS(=O)(=O)CC1 [Example 79, N-(4-{4-amino-6-(cyanomethyl)-7-[(1,1-dioxidothiomorpholin-4-yl)methyl]pyrrolo[2,1-f][1,2,4]triazin-5-yl}-2-fluorophenyl)-N′-[2-fluoro-5-(trifluoromethyl)phenyl]urea]	< 10	–
CC(=O)c1c(-c2ccc(NC(=O)Nc3cccc(C(F)(F)F)c3)c(F)c2)c2c(N)ncnn2c1CN1CCOCC1 [Example 58, N-4-[6-acetyl-4-amino-7-(morpholin-4-ylmethyl)pyrrolo[2,1-f][1,2,4]triazin-5-yl]-2-fluorophenyl-N′-[3-(trifluoromethyl)phenyl]urea]	< 10	–
COCc1c(-c2ccc(NC(=O)Nc3cc(C(F)(F)F)ccc3F)c(F)c2)c2c(N)ncnn2c1C1CCNCC1 [Example 149, 1-{4-[4-amino-6-(methoxymethyl)-7-piperidin-4-ylpyrrolo[2,1-f][1,2,4]triazin-5-yl]-2-fluorophenyl}-3-[2-fluoro-5-(trifluoro-methyl)phenyl]urea]	10 to 100	–
COCc1c(-c2ccc(NC(=O)Nc3cc(C(F)(F)F)ccn3)cc2)c2c(N)ncnn2c1CN1CCOCC1 [Example 35, N-4-[4-amino-6-(methoxymethyl)-7-(morpholin-4-ylmethyl)pyrrolo[2,1-f][1,2,4]triazin-5-yl]phenyl-N′-[4-(trifluoromethyl)pyridin-2-yl]urea]	10 to 100	–
CN1CCN(Cc2c(C#N)c(-c3ccc(NC(=O)Nc4cc(C(F)(F)F)ccc4F)cc3)c3c(N)ncnn23)CC1 [Example 55, N-(4-4-amino-6-cyano-7-[(4-methylpiperazin-1-yl)methyl]-pyrrolo[2,1-f][1,2,4]triazin-5-ylphenyl)-N′-[2-fluoro-5-(trifluoromethyl)-phenyl]urea]	10 to 100	–
Nc1ncnn2c(CN3CCOCC3)c(C(F)F)c(-c3ccc(NC(=O)Nc4cc(C(F)(F)F)ccc4F)c(F)c3)c12 [Example 99, N-{4-[4-amino-6-(difluoromethyl)-7-(morpholin-4-ylmethyl)-pyrrolo[2,1-f][1,2,4]triazin-5-yl]-2-fluorophenyl}-N′-[2-fluoro-5-(trifluoromethyl)phenyl]urea]	10 to 100	–
Nc1ncnn2c(CN3CCOCC3)c(CO)c(-c3ccc(NC(=O)Nc4cc(C(F)(F)F)ccn4)c(F)c3)c12 [Example 114, N-{4-[4-amino-6-(hydroxymethyl)-7-(morpholin-4-ylmethyl)pyrrolo[2,1-f][1,2,4]triazin-5-yl]-2-fluorophenyl}-N′-[4-(trifluoromethyl)pyridin-2-yl]urea]	10 to 100	–
Nc1ncnn2c(CN3CCOCC3)c(-c3cnco3)c(-c3ccc(NC(=O)Nc4cc(C(F)(F)F)ccn4)cc3)c12 [Example 27, N-4-[4-amino-7-(morpholin-4-ylmethyl)-6-(1,3-oxazol-5-yl)pyrrolo[2,1-f][1,2,4]triazin-5-yl]phenyl-N′-[4-(trifluoromethyl)pyridin-2-yl]urea]	< 10	–
COCc1c(-c2ccc(NC(=O)Nc3cccc(C(C)(C)C)c3)c(F)c2)c2c(N)ncnn2c1CN1CCOCC1 [Example 138, N-{4-[4-amino-6-(methoxymethyl)-7-(morpholin-4-ylmethyl)-pyrrolo[2,1-f][1,2,4]triazin-5-yl]-2-fluorophenyl}-N′-(3-tert-butylphenyl)urea]	< 10	–
N#Cc1c(C(=O)NCC(F)(F)F)c(-c2ccc(NC(=O)Nc3cc(C(F)(F)F)ccc3F)cc2)c2c(N)ncnn12 [Example 5, 4-amino-7-cyano-5-4-[([2-fluoro-5-(trifluoromethyl)phenyl]aminocarbonyl)amino]phenyl-N-(2,2,2-trifluoroethyl)-pyrrolo[2,1-f][1,2,4]triazine-6-carboxamide]	10 to 100	–
Nc1ncnn2c(CN3CCOCC3)c(Cl)c(-c3ccc(NC(=O)Nc4cc(C(F)(F)F)ccn4)c(F)c3)c12 [Example 158, N-{4-[4-amino-6-chloro-7-(morpholin-4-ylmethyl)pyrrolo[2,1-f][1,2,4]triazin-5-yl]-2-fluorophenyl}-N′-[4-(trifluoromethyl)pyridin-2-yl]urea]	< 10	–
Cc1cc(-c2c(C)c(CN3CCCOCC3)n3ncnc(N)c23)ccc1NC(=O)Nc1cc(C(F)(F)F)ccc1F [Example 126, 1-{4-[4-amino-6-methyl-7-(1,4-oxazepan-4-ylmethyl)pyrrolo[2,1-f][1,2,4]triazin-5-yl]-2-methylphenyl}-3-[2-fluoro-5-(trifluoromethyl)-phenyl]urea]	< 10	–
CC(O)c1c(-c2ccc(NC(=O)Nc3cc(C(F)(F)F)ccc3F)cc2)c2c(N)ncnn2c1CN1CCOCC1 (stereo not drawn) [Example 104, N-4-[4-amino-6-(1-hydroxyethyl)-7-(morpholin-4-ylmethyl)-pyrrolo[2,1-f][1,2,4]triazin-5-yl]phenyl-N′-[2-fluoro-5-(trifluoromethyl)-phenyl]urea]	10 to 100	–
CCOC(=O)c1c(-c2ccc(NC(=O)Nc3cc(C(F)(F)F)ccn3)cc2)c2c(N)ncnn2c1C#N [Example 6, ethyl 4-amino-7-cyano-5-{4-[({[4-(trifluoromethyl)pyridin-2-yl]amino}carbonyl)amino]phenyl}pyrrolo[2,1-f][1,2,4]triazine-6-carboxylate]	> 100	< 1000
Nc1ncnn2c(CN3CCOCC3)c(C(F)F)c(-c3ccc(NC(=O)Nc4cc(C(F)(F)F)ccn4)c(F)c3)c12 [Example 116, N-{4-[4-amino-6-(difluoromethyl)-7-(morpholin-4-ylmethyl)-pyrrolo[2,1-f][1,2,4]triazin-5-yl]-2-fluorophenyl}-N′-[4-(trifluoromethyl)pyridin-2-yl]urea]	< 10	–
Nc1ncnn2c(CN3CCOCC3)c(Cl)c(-c3cc(F)c(NC(=O)Nc4cc(C(F)(F)F)ccc4F)cc3F)c12 [Example 156, N-{4-[4-amino-6-chloro-7-(morpholin-4-ylmethyl)pyrrolo[2,1-f][1,2,4]triazin-5-yl]-2,5-difluorophenyl}-N′-[2-fluoro-5-(trifluoromethyl)-phenyl]urea]	> 100	< 1000
COCc1c(-c2ccc(NC(=O)Nc3cc(C(F)(F)F)ccc3F)c(F)c2)c2c(N)ncnn2c1CN1CCNC(=O)C1 [Example 44, N-(4-{4-amino-6-(methoxymethyl)-7-[(3-oxopiperazin-1-yl)methyl]pyrrolo[2,1-f][1,2,4]triazin-5-yl}-2-fluorophenyl)-N′-[2-fluoro-5-(trifluoromethyl)phenyl]urea]	< 10	–
COCc1c(-c2ccc(NC(=O)Nc3cc(C(F)(F)F)ccc3Cl)cc2)c2c(N)ncnn2c1CN1CCOCC1 [Example 49, N-{4-[4-amino-6-(methoxymethyl)-7-(morpholin-4-ylmethyl)pyrrolo[2,1-f][1,2,4]triazin-5-yl]phenyl}-N′-[2-chloro-5-(trifluoromethyl)phenyl]urea]	10 to 100	–
Nc1ncnn2c(CN3CCOCC3)c(C(=O)C3CC3)c(-c3ccc(NC(=O)Nc4cc(C(F)(F)F)ccn4)cc3)c12 [Example 89, N-{4-[4-amino-6-(cyclopropylcarbonyl)-7-(morpholin-4-ylmethyl)pyrrolo[2,1-f][1,2,4]triazin-5-yl]phenyl}-N′-[4-(trifluoromethyl)pyridin-2-yl]urea]	10 to 100	–
COCc1c(-c2ccc(NC(=O)Nc3cc(C(F)(F)F)ccc3F)cc2)c2c(N)ncnn2c1COC [Example 24, N-{4-[4-amino-6,7-bis(methoxymethyl)pyrrolo[2,1-f]-[1,2,4]triazin-5-yl]phenyl}-N′-[2-fluoro-5-(trifluoromethyl)phenyl]urea]	10 to 100	–
Cc1ccc(F)c(NC(=O)Nc2ccc(-c3c(Cl)c(CN4CCOCC4)n4ncnc(N)c34)cc2F)c1 [Example 161, N-{4-[4-amino-6-chloro-7-(morpholin-4-ylmethyl)pyrrolo[2,1-f][1,2,4]triazin-5-yl]-2-fluorophenyl}-N′-(2-fluoro-5-methylphenyl)urea]	< 10	–
